The target of one test is T1, mouse ATB^0,+ (Mus musculus, UniProt Q9JMA9).
T1 sequence (Q9JMA9 1-638): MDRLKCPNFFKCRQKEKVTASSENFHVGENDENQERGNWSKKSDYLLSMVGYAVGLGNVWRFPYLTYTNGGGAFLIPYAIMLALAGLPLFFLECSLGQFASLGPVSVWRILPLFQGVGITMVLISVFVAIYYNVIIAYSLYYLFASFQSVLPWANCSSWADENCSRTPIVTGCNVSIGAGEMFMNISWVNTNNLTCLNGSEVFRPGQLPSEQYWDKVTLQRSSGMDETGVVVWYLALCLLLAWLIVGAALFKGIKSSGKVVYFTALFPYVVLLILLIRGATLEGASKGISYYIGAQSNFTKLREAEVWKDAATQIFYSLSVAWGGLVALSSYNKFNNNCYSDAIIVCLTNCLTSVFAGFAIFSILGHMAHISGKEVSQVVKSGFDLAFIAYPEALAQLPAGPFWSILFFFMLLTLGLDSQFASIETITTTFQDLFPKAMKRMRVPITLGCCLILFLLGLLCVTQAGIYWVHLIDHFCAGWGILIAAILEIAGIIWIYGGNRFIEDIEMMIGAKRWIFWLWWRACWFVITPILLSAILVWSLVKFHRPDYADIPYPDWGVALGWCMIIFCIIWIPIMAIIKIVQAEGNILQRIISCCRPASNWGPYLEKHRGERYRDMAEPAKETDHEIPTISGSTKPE
Put plainly: Inhibition of ATB^0,+-mediated glycine uptake in HRPE cells expressing cloned mouse ATB^0,+. The test is classed as cell-based. The settings on record: for inhibition of ATB^0,+-specific glycine uptake: glycine 10 μM, inhibitor 1 mM, 30 min, NaCl, HRPE cells.

The target of another test is T2, ATB^0,+ in MCF7 cells (Homo sapiens, UniProt Q9UN76).
T2 construct: host or cells: MCF7
T2 sequence (Q9UN76 1-642): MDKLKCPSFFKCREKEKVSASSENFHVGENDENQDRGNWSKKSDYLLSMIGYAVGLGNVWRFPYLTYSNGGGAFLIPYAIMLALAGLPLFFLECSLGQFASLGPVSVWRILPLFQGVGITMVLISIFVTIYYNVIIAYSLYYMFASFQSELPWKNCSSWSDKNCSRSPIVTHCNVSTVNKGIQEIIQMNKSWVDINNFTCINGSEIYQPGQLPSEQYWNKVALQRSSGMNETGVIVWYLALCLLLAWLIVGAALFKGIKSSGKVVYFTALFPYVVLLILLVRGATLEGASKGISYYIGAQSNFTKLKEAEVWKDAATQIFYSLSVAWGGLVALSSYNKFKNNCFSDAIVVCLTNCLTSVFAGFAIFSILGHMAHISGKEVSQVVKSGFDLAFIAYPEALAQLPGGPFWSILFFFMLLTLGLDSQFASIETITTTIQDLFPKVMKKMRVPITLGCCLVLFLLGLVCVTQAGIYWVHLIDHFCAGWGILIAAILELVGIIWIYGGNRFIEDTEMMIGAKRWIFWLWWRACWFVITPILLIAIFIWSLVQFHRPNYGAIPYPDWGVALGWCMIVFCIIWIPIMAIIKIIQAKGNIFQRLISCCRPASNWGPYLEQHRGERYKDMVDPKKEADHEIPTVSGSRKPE
Briefly: D-serine uptake in MCF7 cells (constitutively expressed ATB^0,+). It is filed as cell-based. As to conditions: for IC50: D-serine 5 μM, NaCl, read-out: IC50 for inhibition of D-serine uptake. The protocol:
Cells were seeded and grown in 24-well culture plates to confluency and used for uptake measurements. Radiolabelled glycine or D-serine was used as the substrate to determine the transport function of ATB^0,+. Uptake measurements were routinely made in an NaCl-containing buffer (25 mM Hepes/Tris buffer, pH 7.4, 140 mM NaCl, 5.4 mM KCl, 1.8 mM CaCl2, 0.8 mM MgSO4 and 5 mM glucose). Ion dependence of the transport process was evaluated by studying the uptake activity in buffers of varying compositions. NaCl in the uptake buffer was replaced iso-osmotically with NMDG (N-methyl-D-glucamine) chloride to prepare an Na^+-free buffer, and with sodium gluconate to prepare a Cl^−-free buffer. Linear uptake rates were determined by employing a 10 min incubation period, based on time course experiments. Na^+-activation kinetics was analysed by studying the uptake rates in the presence of varying concentrations of Na^+ (2.5-140 mM) in the uptake buffer with Cl^− concentration kept constant at 140 mM. This was done by replacing NaCl with appropriate concentrations of NMDG. Cl^−-activation kinetics was analysed by studying the uptake rates in the presence of varying concentrations of Cl^− (2.5-100 mM) in the uptake buffer with Na^+ concentration kept constant at 140 mM. This was done by replacing NaCl with appropriate concentrations of sodium gluconate. Uptake data for Na^+- and Cl^−-activation kinetics were analysed using the Hill equation, and values for K0.5 for Na^+ and Cl^− and for the Hill coefficient (h) were determined by linear and non-linear regression methods. A commercially available software program (Sigma Plot, version 6.0; SPSS) was used for this purpose. Substrate specificity of the uptake process was evaluated by monitoring the effects of unlabelled amino acids (5 mM) on the uptake of radiolabelled glycine or D-serine (5 μM: radiolabelled substrate, 0.05 μM; unlabelled substrate, 4.95 μM).
The kinetic nature of inhibition of D-serine uptake by α-methyl-DL-tryptophan was investigated in MCF7 cells by monitoring the uptake at increasing concentrations of D-serine (range, 50-2000 μM) in the absence and presence of 100 μM α-methyl-DL-tryptophan. The kinetic parameters were calculated by linear regression (Eadie-Hofstee plots) and the values were confirmed by non-linear regression.
We employed a similar experimental strategy to detect specifically the transport function of ATB^0,+ in the remaining seven cell lines. […] We also investigated the effect of α-methyl-DL-tryptophan on D-serine uptake in MCF7 cells.

[1] abbreviates: α-methyl-DL-tryptophan 100 μM, MCF7 cells.

A word on the IC50: it is the concentration needed to halve the response being measured. With `Cn1cc(C[C@@H](N)C(=O)O)c2ccccc21` [1-methyl-D-tryptophan], the IC50 turned out to be 780 ± 225 µM at mouse ATB^0,+ and 1580 ± 180 µM on ATB^0,+ in MCF7 cells (MCF7 cells).
As to `Cn1cc(C[C@H](N)C(=O)O)c2ccccc21` [1-methyl-L-tryptophan], the IC50 was found to be 23 ± 5 µM at mouse ATB^0,+ and 86 ± 11 µM at ATB^0,+ in MCF7 cells (MCF7 cells). Also, the “potency of L-isomer relative to D-isomer as inhibitor of ATB^0,+-mediated glycine uptake” value on mouse ATB^0,+ (1-methyl-L-tryptophan versus 1-methyl-D-tryptophan) is recorded as “at least 35 fold”. For the same compound, the “IC50 of L-isomer lower compared with D-isomer” value against ATB^0,+ in MCF7 cells (D-serine uptake, MCF7 cells) is listed as “at least 15 fold”.
Regarding `CC(N)(Cc1c[nH]c2ccccc12)C(=O)O` (racemic) [α-methyl-DL-tryptophan], the “inhibition of ATB^0,+-specific glycine uptake” value against mouse ATB^0,+ was “inhibited”. Moreover, the “kinetic nature of inhibition of D-serine uptake” value on ATB^0,+ in MCF7 cells (100 μM blocker, D-serine 50-2000 μM, Eadie-Hofstee) is recorded as “competitive”. At ATB^0,+ in MCF7 cells (setting [1]), the “Kt for D-serine uptake in the presence of blocker” value is 869 ± 52 µM and the “Vmax for D-serine uptake in the presence of blocker” value was 33.3±1.4 nmol/mg of protein per 15 min.
Turning to `Cn1cc(CC(N)C(=O)O)c2ccccc21` (racemic) [1-methyl-DL-tryptophan], the “inhibition of ATB^0,+-specific glycine uptake” value against mouse ATB^0,+ is reported as “inhibited”. For the same compound, on ATB^0,+ in MCF7 cells (MCF7 cells), the IC50 turned out to be 221 ± 40 µM.

Values taken from patent US8436039B2, “Inhibitors of the ATB(0,+) transporter and uses thereof” (Georgia Health Sciences University Research Institute, Inc., priority 2008, dated 2013).
